According to PMC10408038 (Journal of medicinal chemistry, 2022):

Key:
NCI-H522 cells [1] = assay: Cell viability assay; conditions: for Fold Change: ratio of IC50 (HCT-116)/ IC50 (NCI-H522); for fold increase of IC50 in the presence of Liproxstatin-1: NCI-H522, Liproxstatin-1 (0.25 μM); for IC50: cell line not given
NCI-H522 cells [2] = assay: C11-BODIPY lipid peroxidation assay; assay type: cell-based; conditions: 3 h or 6 h treatment
NCI-H522 cells [3] = assay: Liproxstatin-1 rescue experiments; assay type: cell-based; conditions: for rescue of cytotoxicity by Liproxstatin-1: compound at 2–3 times the IC50, Liproxstatin-1 0.25 μM
NCI-H522 cells [4] = assay: In-gel fluorescence labeling competition with probe; assay type: cell-based; conditions: competitor 20 μM
[5] = NMR kinetic study of thiol addition; assay type: physicochemical; conditions: DMSO-d6
NCI-H522 cells [6] = assay: Incubation time50; assay type: cell-based; conditions: RSL3 0.5 μM, 45 2 μM
GPX4 = molecular target: T1, GPX4 (Homo sapiens, UniProt P36969); assay: Pulldown with Biotin-TAMRA and western blot analysis, GPX4; assay type: cell-based; conditions: NCI-H522; probe 10 μM; western blot
T1 sequence (P36969 28-197 limits assumed): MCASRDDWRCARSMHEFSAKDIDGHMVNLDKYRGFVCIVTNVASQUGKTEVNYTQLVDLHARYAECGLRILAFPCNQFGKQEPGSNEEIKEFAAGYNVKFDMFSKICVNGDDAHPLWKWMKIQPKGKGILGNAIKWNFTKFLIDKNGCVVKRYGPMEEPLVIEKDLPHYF

GSTO1 = molecular target: T2, GSTO1 (Homo sapiens, UniProt P78417); assay: Pulldown with Biotin-TAMRA and western blot analysis, GSTO1; assay type: cell-based; conditions: NCI-H522; probe 10 μM; western blot
T2 sequence (P78417 1-241): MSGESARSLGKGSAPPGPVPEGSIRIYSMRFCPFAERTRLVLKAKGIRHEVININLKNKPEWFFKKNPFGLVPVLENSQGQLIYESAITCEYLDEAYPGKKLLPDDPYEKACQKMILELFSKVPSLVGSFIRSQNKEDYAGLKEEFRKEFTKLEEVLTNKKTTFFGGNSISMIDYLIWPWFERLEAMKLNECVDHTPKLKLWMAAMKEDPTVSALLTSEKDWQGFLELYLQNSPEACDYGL

TXRD1 = molecular target: T3, TXRD1 (Homo sapiens, UniProt Q16881); assay: Pulldown with Biotin-TAMRA and western blot analysis, TXRD1; assay type: cell-based; conditions: NCI-H522; western blot
T3 sequence (Q16881 151-649 limits assumed): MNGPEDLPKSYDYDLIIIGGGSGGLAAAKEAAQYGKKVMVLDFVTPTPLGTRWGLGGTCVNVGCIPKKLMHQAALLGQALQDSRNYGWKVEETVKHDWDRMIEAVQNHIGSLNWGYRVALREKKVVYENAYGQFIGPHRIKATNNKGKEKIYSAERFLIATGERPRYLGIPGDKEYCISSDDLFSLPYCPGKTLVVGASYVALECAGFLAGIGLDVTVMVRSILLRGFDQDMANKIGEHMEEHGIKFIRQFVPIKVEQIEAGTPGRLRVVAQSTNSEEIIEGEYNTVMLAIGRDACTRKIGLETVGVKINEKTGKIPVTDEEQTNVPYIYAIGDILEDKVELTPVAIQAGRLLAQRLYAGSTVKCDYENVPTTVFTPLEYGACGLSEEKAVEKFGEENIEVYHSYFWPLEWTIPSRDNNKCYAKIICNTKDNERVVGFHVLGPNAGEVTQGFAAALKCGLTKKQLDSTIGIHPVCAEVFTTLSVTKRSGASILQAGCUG

[7] = in the presence of DABCO, N-Boc-cysteine methyl ester 10 equiv.

2-ethynyl-N-(4-methoxyphenyl)thiazole-5-carboxamide [Compound 8]
Fold Change (NCI-H522 cells [1]): 12.52

2-ethynyl-N-phenylthiazole-5-carboxamide [Compound 9]
Fold Change (NCI-H522 cells [1]): 7.39

C#Cc1nc(C(=O)N2CCN(C(c3ccc(Cl)cc3)c3ccc(Cl)cc3)CC2)cs1 [BCP-T.A, (4-(bis(4-chlorophenyl)methyl)piperazin-1-yl)(2-ethynylthiazol-4-yl)methanone]
C11-Bodipy oxidation (lipid peroxide levels) versus DMSO (NCI-H522 cells [2]): increases lipid peroxides | fold increase of IC50 in the presence of Liproxstatin-1 (NCI-H522 cells [1]): approximately 500 fold | rescue of cytotoxicity by Liproxstatin-1 (NCI-H522 cells [3]): rescues cells

C#CC1=Nc2ccccc2C(C)(C)O1 [Compound 2, 2-ethynyl-4,4-dimethyl-4H-benzo[d][1,3]oxazine, reference compound]
rescue of cytotoxicity by Liproxstatin-1 (NCI-H522 cells [3]): significant rescue | competition with probe (65) labeling (NCI-H522 cells [4]): high competition

C#Cc1nc(C(=O)OCC)cs1 [Compound 22, ethyl 2-ethynylthiazole-4-carboxylate]
half-life (t1/2) of thiol addition ([5]; in the absence of DABCO): 4.43 h | half-life (t1/2) of thiol addition [5, 7]: 0.315 h | cells rescued by Liproxstatin-1 (NCI-H522 cells [3]; (22) 10 μM, Liproxstatin-1 0.25 μM): 100%

Cn1c(I)nc2ccccc21 [Compound 31, 2-iodo-1-methyl-1H-benzo[d]imidazole]
C11-Bodipy oxidation (lipid peroxide levels) versus DMSO (NCI-H522 cells [2]): indistinguishable from the corresponding DMSO treatment | rescue of cytotoxicity by Liproxstatin-1 (NCI-H522 cells [3]): kill NCI-H522 cells at the same rates both in the absence and presence of Liproxstatin-1

C=Cc1nc2ccccc2n1C [Compound 39, 1-methyl-2-vinyl-1H-benzo[d]imidazole]
C11-Bodipy oxidation (lipid peroxide levels) versus DMSO (NCI-H522 cells [2]): marginally increase C11-Bodipy oxidation | rescue of cytotoxicity by Liproxstatin-1 (NCI-H522 cells [3]): kill NCI-H522 cells at the same rates both in the absence and presence of Liproxstatin-1

C=Cc1nc2ccccc2[se]1 [Compound 42, 2-vinylbenzo[d][1,3]selenazole]
C11-Bodipy oxidation (lipid peroxide levels) versus DMSO (NCI-H522 cells [2]): marginally increase C11-Bodipy oxidation

C#Cc1nc2ccccc2s1 [Compound 45, 2-ethynylbenzo[d]thiazole]
half-life (t1/2) of thiol addition ([5]; in the absence of DABCO): > 6 h | half-life (t1/2) of thiol addition [5, 7]: < 0.083 h | incubation time after which cells cannot be rescued by washing off the drug (NCI-H522 cells [6]): 1 to 2 h | competition with probe (65) labeling (NCI-H522 cells [4]): high competition

C#CCNC1CCC(c2csc(C#C)n2)=C1C (stereo not drawn) [Compound 64, 3-(2-ethynylthiazol-4-yl)-2-methyl-N-(prop-2-yn-1-yl)cyclopent-2-en-1-amine]
C11-Bodipy oxidation (lipid peroxide levels) versus DMSO (NCI-H522 cells [2]): increased levels of lipid peroxides | rescue of cytotoxicity by Liproxstatin-1 (NCI-H522 cells [3]): significant rescue

C#CCNC(=O)c1csc(C#C)n1 [Compound 65, 2-ethynyl-N-(prop-2-yn-1-yl)thiazole-4-carboxamide]
C11-Bodipy oxidation (lipid peroxide levels) versus DMSO (NCI-H522 cells [2]): increased levels of lipid peroxides | enrichment of GPX4 in pulldown (GPX4): selectively enriched | rescue of cytotoxicity by Liproxstatin-1 (NCI-H522 cells [3]): significant rescue | enrichment of GSTO1 in pulldown (GSTO1): selectively enriched

C#CCNC(=O)c1csc(C#Cc2ccccc2)n1 [Compound 66, 2-(phenylethynyl)-N-(prop-2-yn-1-yl)thiazole-4-carboxamide]
labeling of TXRD1 in pulldown (TXRD1): has the ability to label this protein

Cc1onc(C(=O)N2CCN(C(c3ccc(Cl)cc3)c3ccc(Cl)cc3)CC2)c1[N+](=O)[O-] [ML-210, (4-(bis(4-chlorophenyl)methyl)piperazin-1-yl)(5-methyl-4-nitroisoxazol-3-yl)methanone, reference compound]
fold increase of IC50 in the presence of Liproxstatin-1 (NCI-H522 cells [1]): about 800 fold

COC(=O)c1ccc([C@H]2c3[nH]c4ccccc4c3CC(C(=O)OC)N2C(=O)CCl)cc1 (stereo partly drawn) [RSL3, reference compound]
incubation time after which cells cannot be rescued by washing off the drug (NCI-H522 cells [6]): 1 to 2 h

CCOc1ccccc1-n1c(C(C)N2CCN(C(=O)COc3ccc(Cl)cc3)CC2)nc2ccccc2c1=O (stereo not drawn) [erastin]
competition with probe (65) labeling (NCI-H522 cells [4]): no competition was observed

(4-ethylpiperazin-1-yl)(2-ethynylthiazol-5-yl)methanone [Compound 75]
IC50 (NCI-H522 cells [1]; scheme 5 analogs): > 1000 nM

(E)-1-(4-(bis(4-chlorophenyl)methyl)piperazin-1-yl)-3-(2-ethynylthiazol-5-yl)prop-2-en-1-one [Compound 78]
IC50 (NCI-H522 cells [1]; scheme 5D): 6 nM

(E)-N-(4-chlorophenyl)-3-(2-ethynylthiazol-5-yl)acrylamide [Compound 16]
Fold Change (NCI-H522 cells [1]): 62.64

N-(4-chlorophenyl)-2-ethynylthiazole-5-carboxamide [Compound 10]
Fold Change (NCI-H522 cells [1]): 29.40
